Marks after values point to notes of the source that are not given here.
Key:
[1] = parallel artificial membrane permeability assay for the BBB (PAMPA-BBB); format: in vitro ADME; details: metabolites in the five PLE extracts, 4 h at 37 °C, pH 7.4; result in words
Description: The parallel artificial membrane permeability assay for the BBB assay was carried out as previously described with some modifications. Briefly, 20 mg/mL thinned peach extracts in 50% ethanol (v/v) was diluted to 5 mg/mL with potassium phosphate buffer (10 mmol/L, pH 7.4). Then, 350 μL of 5 mg/mL extracts and 350 μL of buffer were added to each well of the donor plate and the acceptor plate, respectively. The filter membrane of the donor plate was coated with 5 µL of BBB solution. Afterwards, the whole plate was incubated in the dark for 4 h at 37 °C. After incubation, 300 µL of sample from each well in the donor and acceptor plates was taken out, collected and dried. The dried acceptor and donor samples were redissolved in 50 µL of ethanol and analyzed via HPLC-Q-TOF-MS/MS as described below. The permeability across the artificial BBB of each compound was calculated in terms of cm/s, as in [16].

[2] = ROS scavenging capacity, oxygen radical absorbance capacity (ORAC) assay; details: PLE extracts under optimized conditions (50% ethanol, 180 °C) and reference standard
Description: The ROS scavenging capacity was measured using the oxygen radical absorbance capacity (ORAC) assay described by Ou et al. (2001). Briefly, the reaction mixture contained 100 μL of samples at different concentrations in 10% ethanol (v/v), 100 μL of 590 mmol/L AAPH in 30 mmol/L phosphate buffer (pH 7.5), 100 μL of phosphate buffer and 25 μL of 10 μmol/L fluorescein in buffer. The absorbance was read at the 485 nm excitation spectrum and 528 nm emission spectrum, and recorded at 5 min intervals for 60 min at 37 °C. Ascorbic acid was used as the reference standard and 10% ethanol (v/v) was used as the control. The ROS scavenging capacity was calculated as described by Sánchez-Martínez et al. (2021).

[3] = RNS scavenging capacity, nitric oxide (NO) radical scavenging assay; details: at the maximum concentration tested, 0.8 mg/mL; PLE extracts under optimized conditions and ascorbic acid
Description: The RNS scavenging capacity was estimated by referring to the nitric oxide (NO) radical scavenging assay described by Ho et al. (2010), with some modifications. In brief, 100 μL of the thinned peach extracts in 25% ethanol (v/v) was mixed with 50 μL of 5 mM sodium nitroprusside dehydrate in buffer (30 mmol/L phosphate buffer at pH 7.5) using a transparent 96-well plate. The mixtures were placed under white light at room temperature for 60 min. Afterwards, 100 μL of Griess reagent (500 mg sulphanilamide, 50 mg naphthylethylene diamine dihydrochloride and 1.25 mL of phosphoric acid in 48.5 mL of H2O) was added to each well. The mixtures were allowed to stand for 5 min and the absorbance was read at 546 nm. Ascorbic acid was used as the reference standard and the NO scavenging capacity was calculated as described by Sánchez-Martínez et al. (2021).

Structure (SMILES) | ability to cross the artificial BBB [1] | ROS (IC50) [2] | RNS, percentage of inhibition of nitrogen species with respect to the control [3]
CC(=O)c1ccc(O)c(O)c1 [3,4-dihydroxyacetophenone, 3,4-Dihydroxyacetophenone] | could cross the BBB | – | –
Cc1cc(=O)oc2c(O)c(O)ccc12 [4-methyldaphnetin, 4-Methyldaphnetin] | could cross the BBB | – | –
CCCCCCCC(O)/C=C\C(O)CCC(O)CCCC(=O)O (stereo not shown) [(9Z)-5,8,11-Trihydroxyoctadec-9-enoic acid] | could cross the BBB | – | –
O=C1O[C@H]([C@@H](O)CO)C(O)=C1O [Ascorbic acid] | – | 3.3 ± 0.6 ^e µg/mL | 83.8 ± 4 ^a %
COc1ccc(/C=C/C(=O)O)cc1O [isoferulic acid, Isoferulic acid] | could cross the BBB | – | –
CC1(C)CC[C@]2(C(=O)O)CC[C@]3(C)C(=CCC4[C@@]5(C)C[C@@H](O)[C@H](O)[C@](C)(CO)C5CC[C@]43C)[C@@H]2[C@@H]1O (stereo partly drawn) [triterpenoid 3, (1S,4aR,6aS,6bR,9S,10R,11R,12aR,14bS)-1,10,11-trihydroxy-9-(hydroxymethyl)-2,2,6a,6b,9,12a-hexamethyl-1,3,4,5,6,6a,7,8,8a,10,11,12,13,14b-tetradecahydropicene-4a-carboxylic acid] | highest permeability value | – | –

Source: article PMC9407205, “Neuroprotective Potential of Thinned Peaches Extracts Obtained by Pressurized Liquid Extraction after Different Drying Processes” (Foods, 2022)
